Article PMC8070582, “Therapeutic Efficacy of a Novel Acetylated Tetrapeptide in Animal Models of Age-Related Macular Degeneration” (International Journal of Molecular Sciences, 2021)
Where “and” joins values, the source holds several entries; their conditions need not be identical. Equal entries are not always repeated. Entries after “also recorded” stand apart in the source; their conditions may differ.

Legend:
[1] = tested on: choroidal neovascularization (CNV); experiment: Laser-induced CNV mouse model, treatment on the same day as laser irradiation (CNV area); format: in vivo; conditions: day 7, vs vehicle (p < 0.001)
Protocol: Six-week-old male C57BL/6J mice were purchased from Central Laboratory Animal and then maintained in a specific pathogen free facility in Seoul National University. After deep anesthesia with zolazepam plus tiletamine (3.75 mg/kg, Virbac, Seoul, Korea) and xylazine (7.5 mg/kg, Bayer AG, Leverkusen, Germany), mice were treated with a customized laser indirect ophthalmoscope system (ILOODA) to break Bruch’s membrane (300 μm spot size, 300 mW power, and 100 ms exposure time) as described previously. After the laser irradiation, 10 μL PBS (vehicle), 1 ng of each peptide (RLYE, R(D)LYE and Ac-RLYE), or 145 ng of aflibercept was administered into the vitreous cavity of mice (six per each treatment group) at the same day as laser irradiation. At 7 days after the laser irradiation, the RPE-choroid-scleral complexes were prepared from the enucleated eyes. After immunostaining of the RPE-choroid-scleral complexes with isolectin B4 conjugated with Alexa Fluor-594 (1:100; cat. No. I21413, Invitrogen, Waltham, MA, USA), the CNV area was quantitatively analyzed by the measurement of the area using the ImageJ software. All animal experiments were carried out according to the guidelines of the Ethics Committee for Protection and Use of Experimental Animals of Seoul National University.

[2] = tested on: choroidal neovascularization (CNV); experiment: Rabbit 4-week laser-induced CNV model (retinal fluorescence intensity); format: in vivo; conditions: 2000 µg/eye intravitreal; only until day 14 after CNV induction
Text: From the day of laser irradiation to 7, 14, 21, and 28 days after laser induced CNV, the rabbits were instilled with a 1% Mydriacyl eye drop and then anesthetized.

[3] = tested on: choroidal neovascularization (CNV); experiment: Rabbit 7-week CNV model, treatment 1 week after laser irradiation; format: in vivo
Protocol: From the day of laser irradiation to 7, 14, 21, 28, 35, 42, and 49 days after laser induced CNV, the rabbits were instilled with a 1% Mydriacyl eye drop and then anesthetized.
Fundus photography of retinal angiography was performed at the 42nd day from test substance treatment. Additionally, the eyes were then removed and fixed in 10% formalin solution for 24 h. The cornea, lens, and retina were removed. After washing with PBS, the […] and choroid complex (RPE-choroid complex) just remained from fixed eyes. The CNV area was stained with rhodamine conjugated isolectin B4 (IB4, Sigma-Aldrich, St. Louis, MO, USA) for 24 h at 4 °C. After staining, they were washed in PBS, flat-mounted on a glass slide, and then observed with a fluorescence microscope equipped with a digital camera and photographed. The CNV area was measured by ImageJ software.

[4] = cited from earlier work
[5] = tested on: corneal neovascularization; set-up: method as in PMID 24240485; conditions: administered on day 7 after suture placement; 1 week post-treatment; cited from earlier work
[6] = tested on: choroidal neovascularization (CNV); experiment: Therapeutic laser-induced CNV mouse model, treatment 10 days after laser irradiation (CNV area); format: in vivo; conditions: 1 µL of 1.5 mM intravitreal 10 days after laser irradiation; day 4 after treatment
Protocol: […]. Here, the same amount of saline was injected into the control group. After 4 days (14 days after the laser irradiation), an experiment for analyzing a therapeutic effect was carried out by extracting the eyeballs of the mice. The extracted eyeballs were fixed in 4% paraformaldehyde for 12 h, and embedded in paraffin. Sections with a thickness of 4 μm were prepared from paraffin tissue, and subjected to H&E staining. Afterward, an image of a section with the largest choroidal neovascular membrane area was taken from each subject, and the area of the choroidal neovascular membrane was quantitatively analyzed using ImageJ program (NIH, Bethesda, Rockville, MD, USA). In the saline-injected control group, the average of the choroidal neovascular areas was represented as 100%, and a therapeutic effect of each treatment group was analyzed.

[7] = cited from earlier work; remark: listed apart in the source
[8] = tested on: retinal vascular leakage; experiment: Streptozotocin-induced diabetic mouse model, retinal vascular leakage; format: in vivo; conditions: 1 µL of 1.5 mM intravitreal; 24 h after treatment; vs vehicle; RLYE 0.01 < p < 0.05, Ac-RLYE p < 0.01
Protocol: To prepare a streptozotocin-induced diabetic mouse model, a freshly prepared STZ solution (100 mM) in a citrate buffer (100 mM, pH 4.5) was injected intraperitoneally at 150 mg/kg into the mice, and to prevent hypoglycemic shock, 10% sucrose was sufficiently provided. After two days, blood glucose was measured using an Accu-Chek Performa blood glucose meter (Roche Diagnostics GmbH, Mannheim, Germany), and when non-fasting blood glucose within 1 to 2 weeks was maintained at 300 mg/dl or more, the mice were used as diabetic animal models. […]. Here, the same amount of PBS was injected into the control group. The peptide was injected, and after 24 h, 1 mL (1.25 mg) of FITC-dextran (250 kDa) was injected into the left ventricle of each mouse to allow circulation for approximately 5 min. The mice were euthanized by cervical dislocation, and the eyeballs were extracted and fixed in 4% paraformaldehyde at room temperature for 1 h. The retina was isolated from the fixed eyeball to prepare a retinal flat mount, and vascular leakage was observed under a confocal microscope. Meanwhile, the fluorescence of FITC-dextran leaked from retinal vessels was measured using Fluoview software.

[9] = tested on: VEGF-induced angiogenesis; set-up: method as in PMID 10747021; conditions: slow-releasing hydrogel implants in corneal stroma; assessed on day 12; cited from earlier work

## aflibercept: fusion protein of ligand-binding elements of VEGFR-1 and VEGFR-2 fused to the Fc portion of IgG
[1]; 145 ng/1 µL/eye intravitreal on day of laser irradiation
  CNV area: significantly reduced
[2]
  retinal fluorescence intensity vs vehicle group: significantly reduced
[3]; 2000 µg/eye intravitreal on day 7 after laser, days 7, 14, 21, 28, 35 and 42 after administration
  retinal fluorescence intensity vs vehicle control: significantly lower
[3]; aflibercept 2000 µg/eye, day 42 after drug administration
  CNV lesions (CNV area) compared with vehicle control, reduced to: 38.9% and 36%
[4]
  t1/2 (ocular): 94.1 h
  volume of distribution: 1.4 mL

## bevacizumab: anti-VEGF antibody
[5]
  degree of reduction of the CNV area compared with vehicle: 46%–60%

## Arg-Leu-Tyr-Glu (RLYE; printed: Arg-Leu-Tyr-Glu) [antiangiogenic tetrapeptide derived from the human plasminogen kringle-5 domain]
[6]
  degree of CNV area reduction compared with vehicle: 55%
  occurrence of CNV (CNV area): significantly reduced the CNV area; also recorded: effectively reduced
[1]; 1 ng/1 µL/eye intravitreal on day of laser irradiation
  CNV area: significantly reduced
[7]
  serum half-life: 1.2 h
[8]
  retinal vascular leakage (FITC-dextran): effectively inhibited

## ATWLPPR
[9]
  VEGF-induced angiogenesis: abolish VEGF-induced angiogenesis

## ranibizumab: an anti-VEGF therapy (anti-VEGF antibody), positive control
[5]
  degree of reduction of the CNV area compared with vehicle: 53%–60%
[4]
  t1/2 (ocular): 52.4 h
  volume of distribution: 2.7 mL
